Here are results for 1 molecule from patent US12187759B2, “TLR7 agonists” (Primmune Therapeutics, Inc., priority 2019, dated 2025).

One assay concerns the target T1, human TLR8 (Homo sapiens, UniProt Q9NR97).
T1 construct: host or cells: HEK293
T1 sequence (Q9NR97 27-1041): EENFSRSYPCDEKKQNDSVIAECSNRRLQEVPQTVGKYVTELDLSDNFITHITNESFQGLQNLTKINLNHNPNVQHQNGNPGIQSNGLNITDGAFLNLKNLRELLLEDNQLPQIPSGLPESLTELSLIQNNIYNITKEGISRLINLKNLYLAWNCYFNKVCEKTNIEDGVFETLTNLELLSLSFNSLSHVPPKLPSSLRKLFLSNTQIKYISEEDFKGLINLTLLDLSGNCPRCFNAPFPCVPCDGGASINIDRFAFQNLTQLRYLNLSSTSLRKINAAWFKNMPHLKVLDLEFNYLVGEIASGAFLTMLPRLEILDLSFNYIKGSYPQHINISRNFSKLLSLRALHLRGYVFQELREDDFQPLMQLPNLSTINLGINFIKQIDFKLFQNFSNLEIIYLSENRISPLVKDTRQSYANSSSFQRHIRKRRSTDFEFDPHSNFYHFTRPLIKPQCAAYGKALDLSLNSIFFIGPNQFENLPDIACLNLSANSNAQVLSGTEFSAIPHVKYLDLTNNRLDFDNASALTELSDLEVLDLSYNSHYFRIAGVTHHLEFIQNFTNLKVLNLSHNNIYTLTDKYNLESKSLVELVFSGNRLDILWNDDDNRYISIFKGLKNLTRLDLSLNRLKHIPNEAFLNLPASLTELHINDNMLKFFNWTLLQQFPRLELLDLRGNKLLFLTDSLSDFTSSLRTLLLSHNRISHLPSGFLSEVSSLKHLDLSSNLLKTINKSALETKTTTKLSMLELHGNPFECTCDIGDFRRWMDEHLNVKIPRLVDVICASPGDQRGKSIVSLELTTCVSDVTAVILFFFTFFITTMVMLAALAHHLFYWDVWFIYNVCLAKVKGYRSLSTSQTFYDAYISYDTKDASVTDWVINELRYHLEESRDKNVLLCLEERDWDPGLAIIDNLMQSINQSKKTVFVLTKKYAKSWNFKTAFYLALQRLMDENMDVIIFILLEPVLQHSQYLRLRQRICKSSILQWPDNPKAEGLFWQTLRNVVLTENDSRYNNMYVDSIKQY
Kind of assay: TLR8 reporter cell assay (HEK293 cells stably expressing human TLR8 with NF-κB-driven SEAP reporter). The format is cell-based. As to conditions: concentrations up to 500 μM; significant = >5% of ymax. An excerpt:
The engagement of TLRs by cognate ligands triggers downstream signaling cascades, leading to the activation of NF-κB and other transcription factors which initiate various immunomodulatory effects. The human embryonic kidney cell line, HEK293, is essentially non-responsive to TLR agonists, but ectopic expression of TLRs in these cells allows cognate agonists to activate endogenous NF-κB. Accordingly, the HEK293-TLR-NF-κB inducible reporter system is used to assay TLR agonists.
HEK293 cell lines stably expressing human TLR7 or TLR8 together with an NF-κB-driven-secreted alkaline phosphatase (SEAP) reporter were invented at InvivoGen (San Diego, California, USA) and used to assess compounds of the present invention for TLR7 and TLR8 agonist activities. Cells were seeded at 2-5×10^4 cells/well in 96 well plates (200 μl/well) and treated with various concentrations of compound (10 μl) for 15-24 hours. SEAP activity was determined by measuring OD at 650 nm; the media used to culture the cell lines contains the reagents required for SEAP detection. […]

In another assay the target is T2, human TLR7 (Homo sapiens, UniProt Q9NYK1).
T2 construct: host or cells: HEK293
T2 sequence (Q9NYK1 27-1049): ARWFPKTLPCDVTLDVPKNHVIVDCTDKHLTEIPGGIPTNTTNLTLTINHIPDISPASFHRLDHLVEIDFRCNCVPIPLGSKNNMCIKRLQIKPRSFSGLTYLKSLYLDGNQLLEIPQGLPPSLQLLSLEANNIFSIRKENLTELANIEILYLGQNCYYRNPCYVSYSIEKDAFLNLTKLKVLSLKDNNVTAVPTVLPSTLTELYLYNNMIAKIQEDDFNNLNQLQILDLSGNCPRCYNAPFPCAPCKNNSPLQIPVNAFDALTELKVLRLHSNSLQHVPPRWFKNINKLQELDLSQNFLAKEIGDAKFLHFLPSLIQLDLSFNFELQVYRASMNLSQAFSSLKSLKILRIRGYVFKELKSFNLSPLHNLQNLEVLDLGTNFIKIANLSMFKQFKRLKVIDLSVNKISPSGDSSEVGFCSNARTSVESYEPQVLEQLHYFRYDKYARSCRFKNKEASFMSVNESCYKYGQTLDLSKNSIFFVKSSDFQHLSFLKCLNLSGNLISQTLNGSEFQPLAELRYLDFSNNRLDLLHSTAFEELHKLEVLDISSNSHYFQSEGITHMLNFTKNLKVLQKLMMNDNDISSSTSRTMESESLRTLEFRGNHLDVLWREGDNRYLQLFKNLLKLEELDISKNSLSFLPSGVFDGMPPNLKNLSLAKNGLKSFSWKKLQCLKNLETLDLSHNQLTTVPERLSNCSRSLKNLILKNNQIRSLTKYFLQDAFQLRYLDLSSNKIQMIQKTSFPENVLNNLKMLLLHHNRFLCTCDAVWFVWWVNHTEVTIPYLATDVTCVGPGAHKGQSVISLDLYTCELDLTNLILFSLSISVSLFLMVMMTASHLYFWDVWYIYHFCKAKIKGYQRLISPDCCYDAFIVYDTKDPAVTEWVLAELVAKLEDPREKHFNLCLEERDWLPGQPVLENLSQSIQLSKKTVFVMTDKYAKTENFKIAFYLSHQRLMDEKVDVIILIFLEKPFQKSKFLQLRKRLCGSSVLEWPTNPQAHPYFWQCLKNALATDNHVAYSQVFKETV
In words: TLR7 reporter cell assay (HEK293 cells stably expressing human TLR7 with NF-κB-driven SEAP reporter). The format is cell-based. As to conditions: 15-24 hours. The procedure, abridged:
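HEK293 cells stably expressing human TLR7 with an NF-κB-driven SEAP reporter, treated with compound for 15-24 hours. SEAP read at OD 650 nm. EC50 fitted by nonlinear least squares, maximum set by 28.5 μM resiquimod.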

In the case of `CC[C@H](O)[C@@H]1C[C@@H](O)[C@H](n2c(=O)sc3c(=O)[nH]c(N)nc32)O1` [Compound A, 5-amino-3-((2R,3R,5S)-3-hydroxy-5-((S)-1-hydroxypropyl)tetrahydrofuran-2-yl)thiazolo[4,5-d]pyrimidine-2,7(3H,6H)-dione, reference compound], on human TLR8, the “activity in TLR8 reporter cell assay (% of ymax for TLR8 as measured at 28.5 μM resiquimod)” value is > 5 % of ymax. Besides, at human TLR7 (HEK293, 500 μM compound, SEAP activity (OD 650 nm) relative to 28.5 μM resiquimod, read-out: Response at 500 μM Compound as a Percent of Resiquimod Response), the Emax at 500 µM came to 74%. At human TLR7 (fit of SEAP dose response, ymax from 28.5 μM resiquimod), this molecule had an EC50 of 51 µM.

As usually defined, the EC50 is the concentration needed to bring the measured effect to its halfway point.
